In paper PMC4987671, “Inhibition of cytochrome P450 3A by acetoxylated analogues of resveratrol in in vitro and in silico models” (Scientific Reports, 2016):
Read-outs that look alike come from different tables or passages of the source.

Target: CYP3A4 (Homo sapiens, UniProt P08684)
Test: inhibition of testosterone metabolism in Caco-2/TC7 cells (HPLC)
Type: cell-based
[1] = read-out: % inhibition at 10 μM

CYP3A4, sequence (P08684 2-503): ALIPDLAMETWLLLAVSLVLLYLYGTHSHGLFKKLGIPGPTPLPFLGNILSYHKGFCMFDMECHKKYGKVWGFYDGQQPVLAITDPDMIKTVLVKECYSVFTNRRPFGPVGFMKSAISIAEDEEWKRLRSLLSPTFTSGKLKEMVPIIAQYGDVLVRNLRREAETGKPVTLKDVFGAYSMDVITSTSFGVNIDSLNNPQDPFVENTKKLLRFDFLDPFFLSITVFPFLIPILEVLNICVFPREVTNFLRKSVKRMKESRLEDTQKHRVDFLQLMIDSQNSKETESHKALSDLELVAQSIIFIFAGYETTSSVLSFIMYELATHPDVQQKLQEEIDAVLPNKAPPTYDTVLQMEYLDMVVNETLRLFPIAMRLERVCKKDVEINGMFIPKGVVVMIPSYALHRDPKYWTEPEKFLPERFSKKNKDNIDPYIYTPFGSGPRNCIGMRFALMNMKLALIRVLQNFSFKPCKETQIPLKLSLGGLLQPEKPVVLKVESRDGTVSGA

SMILES	inhibition at 10 µM [1] [%]	inhibition at 10 µM [%]
CC(=O)Oc1ccc(/C=C/c2cc(O)cc(OC(C)=O)c2)cc1 [DAR, 3,4′-acetoxy-5-hydroxy-stilbene]	45	–
CC(=O)Oc1ccc(/C=C/c2cc(O)cc(O)c2)cc1 [MAR, 4′-acetoxy-3,5-hydroxy-stilbene]	24	–
CC(=O)Oc1ccc(/C=C/c2cc(OC(C)=O)cc(OC(C)=O)c2)cc1 [TAR, 3,4′,5-acetoxystilbene]	10	–
CC(=O)N1CCN(c2ccc(OC[C@H]3COC(Cn4ccnc4)(c4ccc(Cl)cc4Cl)O3)cc2)CC1 (some centres unmarked) [ketoconazole, reference compound]	–	~80
Oc1ccc(/C=C/c2cc(O)cc(O)c2)cc1 [resveratrol, trans-3,4′,5-trihydroxystilbene]	> 80	–
